Assay results from US7199148B2, “Broadspectrum substituted oxindole sulfonamide HIV protease inhibitors” (priority 2002, dated 2007).
Read-outs that look alike come from different tables or passages of the source.

What was measured:
Type in all cases: cell-based
HIV strain D = experiment: Antiviral spectrum, clinically isolated mutant strain D; details: FR=EC50(mutant strain)/EC50(HIV-1 strain LAI)
Experimental: (§1) HIV- or mock-infected MT4 cells were incubated for five days in the presence of various concentrations of the inhibitor. At the end of the incubation period, all HIV-infected cells have been killed by the replicating virus in the control cultures in the absence of any inhibitor. Cell viability is measured by measuring the concentration of MTT, a yellow, water soluble tetrazolium dye that is converted to a purple, water insoluble formazan in the mitochondria of living cells only. Upon solubilization of the resulting formazan crystals with isopropanol, the absorbance of the solution is monitored at 540 nm. The values correlate directly to the number of living cells remaining in the culture at the completion of the five day incubation. The inhibitory activity of the compound was monitored on the virus-infected cells and was expressed as EC50 and EC90. These values represent the amount of the compound required to protect 50% and 90%, respectively, of the cells from the cytopathogenic effect of the virus. The toxicity of the compound was measured on the mock-infected cells and was expressed as CC50, which represents the concentration of compound required to inhibit the growth of the cells by 50%. The selectivity index (SI) (ratio CC50/EC50) is an indication of the selectivity of the anti-HIV activity of the inhibitor. Wherever results are reported as e.g. pEC50 or pCC50 values, the result is expressed as the negative logarithm of the result expressed as EC50 or CC50 respectively.
(§2) Because of the increasing emergence of drug resistant HIV strains, the present compounds were tested for their potency against clinically isolated HIV strains harboring several mutations (Table 2 and 3). These mutations are associated with resistance to protease inhibitors and result in viruses that show various degrees of phenotypic cross-resistance to the currently commercially available drugs such as for instance saquinavir, ritonavir, nelfinavir, indinavir and amprenavir.
(§3) As a measure of the broad spectrum activity of the present compounds, the fold resistance (FR), defined as FR=EC50(mutant strain)/EC50(HIV-1 strain LAI), was determined.

HIV strain B = experiment: Antiviral spectrum, clinically isolated mutant strain B; details: FR=EC50(mutant strain)/EC50(HIV-1 strain LAI)
Experimental: as §1, §2, §3

HIV strain A = experiment: Antiviral spectrum, clinically isolated mutant strain A; details: FR=EC50(mutant strain)/EC50(HIV-1 strain LAI)
Experimental: as §1, §2, §3

HIV-1 strain LAI = experiment: Cellular anti-HIV assay, MT4 cells, MTT read-out, wild type strain
Experimental: as §1, with “The compounds of the present invention were examined for anti-viral activity in a cellular assay. […] The cellular assay was performed according to the following procedure. HIV- or” for “HIV- or”

HIV strain C = experiment: Antiviral spectrum, clinically isolated mutant strain C; details: FR=EC50(mutant strain)/EC50(HIV-1 strain LAI)
Experimental: as §1, §2, §3

HIV strain E = experiment: Antiviral spectrum, clinically isolated mutant strain E; details: FR=EC50(mutant strain)/EC50(HIV-1 strain LAI)
Experimental: as §1, §2, §3

HIV strain F = experiment: Antiviral spectrum, clinically isolated mutant strain F; details: FR=EC50(mutant strain)/EC50(HIV-1 strain LAI)
Experimental: as §1, §2, §3

[1] = Toxicity on mock-infected MT4 cells (MTT); details: human
Experimental: as §1, §3

[2] = Human immunodeficiency virus 1, 120 h, Table 1, MT4 cells, five days incubation, HIV-1 strain LAI, read-out: pEC50 (converted)
[3] = Human immunodeficiency virus 1, MT4, Table 3, wild type HIV-LAI strain, read-out: WT (pEC50) (converted)

Compound: CC(C)CN(CC(O)C(Cc1ccccc1)NC(=O)OC1COC2OCCC12)S(=O)(=O)c1ccc2c(c1)C(=Cc1cccn1C)C(=O)N2 (stereo not shown) [Compound 4, (1-Benzyl-2-hydroxy-3-{isobutyl-[3-(1-methyl-1H-pyrrol-2-ylmethylene)-2-oxo-2,3-dihydro-1H-indole-5-sulfonyl]-amino}-propyl)-carbamic acid hexahydro-furo[2,3-b]furan-3-yl ester]
- D (FR towards mutant D) (HIV strain D): 1.9
- B (FR towards mutant B) (HIV strain B): 1.9
- A (FR towards mutant A) (HIV strain A): 2.3
- EC50 (HIV-1 strain LAI; [2]): 15.5 nM
- EC50 (HIV-1 strain LAI; [3]): 15.8 nM
- C (FR towards mutant C) (HIV strain C): 1.7
- E (FR towards mutant E) (HIV strain E): 2.4
- F (FR towards mutant F) (HIV strain F): 2.0
- CC50 at 5 days [1]: 100000 nM

Compound: CCC(C=C1C(=O)Nc2ccc(S(=O)(=O)N(CC(C)C)CC(O)C(Cc3ccccc3)NC(=O)OC3COC4OCCC34)cc21)CC (stereo not shown) [Compound 5, (1-Benzyl-3-{[3-(2-ethyl-butylidene)-2-oxo-2,3-dihydro-1H-indole-5-sulfonyl]-isobutyl-amino}-2-hydroxy-propyl)-carbamic acid hexahydro-furo[2,3-b]furan-3-yl ester]
- D (FR towards mutant D) (HIV strain D): 2.0
- B (FR towards mutant B) (HIV strain B): 8.3
- A (FR towards mutant A) (HIV strain A): 1.9
- EC50 (HIV-1 strain LAI; [2]): 16.6 nM
- EC50 (HIV-1 strain LAI; [3]): 15.8 nM
- C (FR towards mutant C) (HIV strain C): 2.0
- E (FR towards mutant E) (HIV strain E): 4.2
- F (FR towards mutant F) (HIV strain F): 6.5
- CC50 at 5 days [1]: 63100 nM

Compound: Cc1ccc(C=C2C(=O)Nc3ccc(S(=O)(=O)N(CC(C)C)CC(O)C(Cc4ccccc4)NC(=O)OC4COC5OCCC45)cc32)s1 (stereo not shown) [Compound 3, (1-Benzyl-2-hydroxy-3-{isobutyl-[3-(5-methyl-thiophen-2-ylmethylene)-2-oxo-2,3-dihydro-1H-indole-5-sulfonyl]-amino}-propyl)-carbamic acid hexahydro-furo[2,3-b]furan-3-yl ester]
- D (FR towards mutant D) (HIV strain D): 3.0
- B (FR towards mutant B) (HIV strain B): 3.8
- A (FR towards mutant A) (HIV strain A): 3.0
- EC50 (HIV-1 strain LAI; [2]): 11.5 nM
- EC50 (HIV-1 strain LAI; [3]): 12.6 nM
- C (FR towards mutant C) (HIV strain C): 2.6
- E (FR towards mutant E) (HIV strain E): 7.1
- F (FR towards mutant F) (HIV strain F): 6.8
- CC50 at 5 days [1]: 100000 nM

Compound: CC(C)CN(CC(O)C(Cc1ccccc1)NC(=O)OC1COC2OCCC12)S(=O)(=O)c1ccc2c(c1)C(=Cc1ccc(C(=O)O)cc1)C(=O)N2 (stereo not shown) [Compound 20, 4-(5-{[3-(Hexahydro-furo[2,3-b]furan-3-yloxycarbonylamino)-2-hydroxy-4-phenyl-butyl]-isobutyl-sulfamoyl}-2-oxo-1,2-dihydro-indol-3-ylidenemethyl)-benzoic acid]
- EC50 (HIV-1 strain LAI; [2]): 891 nM

Compound: CC(C)CN(C[C@@H](O)[C@H](Cc1ccccc1)NC(=O)OC1COC2OCCC12)S(=O)(=O)c1ccc2c(c1)CC(=O)N2 (stereo in doubt) [Compound 21, Hexahydrofuro[2,3-b]furan-3-yl N-(1-benzyl-2-hydroxy-3-{isobutyl[(2-oxo-2,3-dihydro-1H-indol-5-yl)sulfonyl]amino}propyl}carbamate]
- D (FR towards mutant D) (HIV strain D): 0.33
- B (FR towards mutant B) (HIV strain B): 1.1
- A (FR towards mutant A) (HIV strain A): 1.0
- EC50 (HIV-1 strain LAI; [3]): 158 nM
- C (FR towards mutant C) (HIV strain C): 0.7
- E (FR towards mutant E) (HIV strain E): 0.56
- F (FR towards mutant F) (HIV strain F): 1.2
- CC50 at 5 days [1]: 100000 nM

Compound: Cc1ccc(C=C2C(=O)Nc3ccc(S(=O)(=O)N(CC(C)C)CC(OP(=O)(O)O)C(Cc4ccccc4)NC(=O)OC4COC5OCCC45)cc32)o1 (stereo not shown) [Compound 19, (1-Benzyl-3-{isobutyl-[3-(5-methyl-furan-2-ylmethylene)-2-oxo-2,3-dihydro-1H-indole-5-sulfonyl]-amino}-2-phosphonooxy-propyl)-carbamic acid hexahydro-furo[2,3-b]furan-3-yl ester]
- EC50 (HIV-1 strain LAI; [2]): 302 nM

Compound: Cc1ccc(C=C2C(=O)Nc3ccc(S(=O)(=O)N(CC(C)C)CC(O)C(Cc4ccccc4)NC(=O)OC4COC5OCCC45)cc32)o1 (stereo not shown) [Compound 2, (1-Benzyl-2-hydroxy-3-{isobutyl-[3-(5-methyl-furan-2-ylmethylene)-2-oxo-2,3-dihydro-1H-indole-5-sulfonyl]-amino}-propyl)-carbamic acid hexahydro-furo[2,3-b]furan-3-yl ester]
- D (FR towards mutant D) (HIV strain D): 3.8
- B (FR towards mutant B) (HIV strain B): 3.6
- A (FR towards mutant A) (HIV strain A): 1.7
- EC50 (HIV-1 strain LAI; [2]): 8.51 nM
- EC50 (HIV-1 strain LAI; Human immunodeficiency virus 1, MT4, read-out: WT (pEC50) (converted)): 9.77 nM
- C (FR towards mutant C) (HIV strain C): 1
- E (FR towards mutant E) (HIV strain E): 3.1
- F (FR towards mutant F) (HIV strain F): 3.9
- CC50 at 5 days [1]: 20000 nM

Compound: CC(C)C=C1C(=O)Nc2ccc(S(=O)(=O)N(CC(C)C)CC(O)C(Cc3ccccc3)NC(=O)OC3COC4OCCC34)cc21 (stereo not shown) [Compound 6, {1-Benzyl-2-hydroxy-3-[isobutyl-(3-isobutylidene-2-oxo-2,3-dihydro-1H-indole-5-sulfonyl)-amino]-propyl}-carbamic acid hexahydro-furo[2,3-b]furan-3-yl ester]
- D (FR towards mutant D) (HIV strain D): 1.4
- B (FR towards mutant B) (HIV strain B): 7.1
- A (FR towards mutant A) (HIV strain A): 2.5
- EC50 (HIV-1 strain LAI; [2]): 19.5 nM
- EC50 (HIV-1 strain LAI; [3]): 20 nM
- C (FR towards mutant C) (HIV strain C): 1.6
- E (FR towards mutant E) (HIV strain E): 2.0
- F (FR towards mutant F) (HIV strain F): 7.9
- CC50 at 5 days [1]: 50100 nM

Compound: CC(C)CN(CC(O)C(Cc1ccccc1)NC(=O)OC1COC2OCCC12)S(=O)(=O)c1ccc2c(c1)C(=Cc1ccc[nH]1)C(=O)N2 (stereo not shown) [Compound 1, (1-Benzyl-2-hydroxy-3-{isobutyl-[2-oxo-3-(1H-pyrrol-2-ylmethylene)-2,3-dihydro-1H-indole-5-sulfonyl]-amino}-propyl)-carbamic acid hexahydrofuro[2,3-b]furan-3-yl ester]
- D (FR towards mutant D) (HIV strain D): 2.0
- B (FR towards mutant B) (HIV strain B): 8.7
- A (FR towards mutant A) (HIV strain A): 4.3
- EC50 (HIV-1 strain LAI; [2]): 3.16 nM
- EC50 (HIV-1 strain LAI; [3]): 3.16 nM
- C (FR towards mutant C) (HIV strain C): 2.1
- E (FR towards mutant E) (HIV strain E): 6.2
- F (FR towards mutant F) (HIV strain F): 10
- CC50 at 5 days [1]: 12600 nM

Compound: COc1ccc(C=C2C(=O)Nc3ccc(S(=O)(=O)N(CC(C)C)CC(O)C(Cc4ccccc4)NC(=O)OC4COC5OCCC45)cc32)cc1 (stereo not shown) [Compound 8, (1-Benzyl-2-hydroxy-3-{isobutyl-[3-(4-methoxy-benzylidene)-2-oxo-2,3-dihydro-1H-indole-5-sulfonyl]-amino}-propyl)-carbamic acid hexahydro-furo[2,3-b]furan-3-yl ester]
- D (FR towards mutant D) (HIV strain D): 1.5
- B (FR towards mutant B) (HIV strain B): 5.0
- A (FR towards mutant A) (HIV strain A): 1.7
- EC50 (HIV-1 strain LAI; [2]): 20 nM
- EC50 (HIV-1 strain LAI; [3]): 20 nM
- C (FR towards mutant C) (HIV strain C): 1.5
- E (FR towards mutant E) (HIV strain E): 2.0
- F (FR towards mutant F) (HIV strain F): 1.7
- CC50 at 5 days [1]: 63100 nM

Compound: CC(C)CN(CC(O)C(Cc1ccccc1)NC(=O)OC1COC2OCCC12)S(=O)(=O)c1ccc2c(c1)/C(=C\c1ccco1)C(=O)N2 (stereo not shown) [Compound 7, Hexahydrofuro[2,3-b]furan-3-yl N-{1-benzyl-3-[({3-[(E)-2-furylmethylidene]-2-oxo-2,3-dihydro-1H-indol-5-yl}sulfonyl) (isobutyl)amino]-2-hydroxypropyl}carbamate]
- D (FR towards mutant D) (HIV strain D): 2.4
- B (FR towards mutant B) (HIV strain B): 2.6
- A (FR towards mutant A) (HIV strain A): 1.8
- EC50 (HIV-1 strain LAI; [2]): 19.5 nM
- EC50 (HIV-1 strain LAI; [3]): 20 nM
- C (FR towards mutant C) (HIV strain C): 1.7
- E (FR towards mutant E) (HIV strain E): 5.9
- F (FR towards mutant F) (HIV strain F): 1.9
- CC50 at 5 days [1]: 79400 nM
